The results in this text go back to patent US20120245137A1 (Zalicus Pharmaceuticals Ltd., priority 2009, published 2012).

Each structure is given as a SMILES string.

Assay type in all cases: cell-based
The target in experiment [1] is human α1H T-type channels (Homo sapiens, UniProt O95180). The experiment is described as follows: T-type calcium channel block, whole cell patch clamp, α1H. The note with it: HEK cells stably expressing human α1H; mainly non-inactivated protocol; values above 10,000 nM represented as 10000. The method, then: (§1) T-type calcium channel blocking activity was assayed in human embryonic kidneycells, HEK 293 (Invitrogen), stably transfected with the T-type calcium channel subunits. Briefly, cells were cultured in Dulbecco's modified eagle medium (DMEM) supplemented with 10% fetal bovine serum, 200 U/ml penicillin, and 0.2 mg/mL streptomycin at 37° C. with 5% CO2. At 85% confluency, cells were split with 0.25% trypsin/1 mM EDTA and plated at 10% confluency on glass coverslips. At 12 hours, the medium was replaced, and the cells stably transfected using a standard calcium phosphate protocol and the appropriate calcium channel cDNA's. Fresh DMEM was supplied, and the cells transferred to 28° C./5% CO2.
(§2) Standard patch-clamp techniques were employed to identify blockers of T-type currents. Briefly, previously described HEK cell lines stably expressing human α1G, α1H, and α1I T-type channels were used for all the recordings (passage #: 4-20, 37° C., 5% CO2). Whole cell patch clamp experiments were performed using an Axopatch 200B amplifier (Axon Instruments, Burlingame, Calif.) linked to a personal computer equipped with pCLAMP software. Data were analyzed using Clampfit (Axon Instruments) and SigmaPlot 4.0 (Jandel Scientific). To obtain T-type currents, plastic dishes containing semi-confluent cells were positioned on the stage of a ZEISS AXIOVERT S100 microscope after replacing the culture medium with external solution (Table 2). Whole-cell patches were obtained using pipettes (borosilicate glass with filament, O.D.: 1.5 mm, I.D.: 0.86 mm, 10 cm length), fabricated on a SUTTER P-97 puller with resistance values of ˜5 MΩ (Table 3).
(§3) T-type currents were reliably obtained by using two voltage protocols: • “non-inactivating,” and • “inactivation.”
(§4) Test compounds were dissolved in external solution, 0.1-0.01% DMSO. After ˜10 minutes rest, they were applied by gravity close to the cell using a WPI microfil tubing. The “non-inactivated” pre-pulse was used to examine the resting block of a compound. The “inactivated” protocol was employed to study voltage-dependent block.

The target of experiment [2] is N-type calcium channel subunits (α1B, α2δ, and β3a) (Homo sapiens, UniProt Q00975). Put plainly: Block of Cav2.2 channel, whole cell voltage clamp, manual and PatchXpress. As to conditions: Table 5; table follows Assay Example 3 (whole cell voltage clamp / PatchXpress); assay not given. Summed up: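 Percent block taken as current amplitude ratio with versus without compound, applied in rising doses; IC50 fitted where one cell received multiple doses. Protocol: 50 ms pulses to +20 mV at 0.067 Hz from […] or −90 mV holding; P/n leak subtraction, no junction-potential correction; manual and PatchXpress recordings.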

The target in experiment [3] is human α1G T-type channels (Homo sapiens, UniProt O43497). The experiment is described as follows: T-type calcium channel block, whole cell patch clamp, α1G. The note with it: HEK cells stably expressing human α1G; mainly non-inactivated protocol; values above 10,000 nM represented as 10000. As to the method: as §1, §2, §3, §4
human α1G T-type channels, sequence (O43497 whole entry): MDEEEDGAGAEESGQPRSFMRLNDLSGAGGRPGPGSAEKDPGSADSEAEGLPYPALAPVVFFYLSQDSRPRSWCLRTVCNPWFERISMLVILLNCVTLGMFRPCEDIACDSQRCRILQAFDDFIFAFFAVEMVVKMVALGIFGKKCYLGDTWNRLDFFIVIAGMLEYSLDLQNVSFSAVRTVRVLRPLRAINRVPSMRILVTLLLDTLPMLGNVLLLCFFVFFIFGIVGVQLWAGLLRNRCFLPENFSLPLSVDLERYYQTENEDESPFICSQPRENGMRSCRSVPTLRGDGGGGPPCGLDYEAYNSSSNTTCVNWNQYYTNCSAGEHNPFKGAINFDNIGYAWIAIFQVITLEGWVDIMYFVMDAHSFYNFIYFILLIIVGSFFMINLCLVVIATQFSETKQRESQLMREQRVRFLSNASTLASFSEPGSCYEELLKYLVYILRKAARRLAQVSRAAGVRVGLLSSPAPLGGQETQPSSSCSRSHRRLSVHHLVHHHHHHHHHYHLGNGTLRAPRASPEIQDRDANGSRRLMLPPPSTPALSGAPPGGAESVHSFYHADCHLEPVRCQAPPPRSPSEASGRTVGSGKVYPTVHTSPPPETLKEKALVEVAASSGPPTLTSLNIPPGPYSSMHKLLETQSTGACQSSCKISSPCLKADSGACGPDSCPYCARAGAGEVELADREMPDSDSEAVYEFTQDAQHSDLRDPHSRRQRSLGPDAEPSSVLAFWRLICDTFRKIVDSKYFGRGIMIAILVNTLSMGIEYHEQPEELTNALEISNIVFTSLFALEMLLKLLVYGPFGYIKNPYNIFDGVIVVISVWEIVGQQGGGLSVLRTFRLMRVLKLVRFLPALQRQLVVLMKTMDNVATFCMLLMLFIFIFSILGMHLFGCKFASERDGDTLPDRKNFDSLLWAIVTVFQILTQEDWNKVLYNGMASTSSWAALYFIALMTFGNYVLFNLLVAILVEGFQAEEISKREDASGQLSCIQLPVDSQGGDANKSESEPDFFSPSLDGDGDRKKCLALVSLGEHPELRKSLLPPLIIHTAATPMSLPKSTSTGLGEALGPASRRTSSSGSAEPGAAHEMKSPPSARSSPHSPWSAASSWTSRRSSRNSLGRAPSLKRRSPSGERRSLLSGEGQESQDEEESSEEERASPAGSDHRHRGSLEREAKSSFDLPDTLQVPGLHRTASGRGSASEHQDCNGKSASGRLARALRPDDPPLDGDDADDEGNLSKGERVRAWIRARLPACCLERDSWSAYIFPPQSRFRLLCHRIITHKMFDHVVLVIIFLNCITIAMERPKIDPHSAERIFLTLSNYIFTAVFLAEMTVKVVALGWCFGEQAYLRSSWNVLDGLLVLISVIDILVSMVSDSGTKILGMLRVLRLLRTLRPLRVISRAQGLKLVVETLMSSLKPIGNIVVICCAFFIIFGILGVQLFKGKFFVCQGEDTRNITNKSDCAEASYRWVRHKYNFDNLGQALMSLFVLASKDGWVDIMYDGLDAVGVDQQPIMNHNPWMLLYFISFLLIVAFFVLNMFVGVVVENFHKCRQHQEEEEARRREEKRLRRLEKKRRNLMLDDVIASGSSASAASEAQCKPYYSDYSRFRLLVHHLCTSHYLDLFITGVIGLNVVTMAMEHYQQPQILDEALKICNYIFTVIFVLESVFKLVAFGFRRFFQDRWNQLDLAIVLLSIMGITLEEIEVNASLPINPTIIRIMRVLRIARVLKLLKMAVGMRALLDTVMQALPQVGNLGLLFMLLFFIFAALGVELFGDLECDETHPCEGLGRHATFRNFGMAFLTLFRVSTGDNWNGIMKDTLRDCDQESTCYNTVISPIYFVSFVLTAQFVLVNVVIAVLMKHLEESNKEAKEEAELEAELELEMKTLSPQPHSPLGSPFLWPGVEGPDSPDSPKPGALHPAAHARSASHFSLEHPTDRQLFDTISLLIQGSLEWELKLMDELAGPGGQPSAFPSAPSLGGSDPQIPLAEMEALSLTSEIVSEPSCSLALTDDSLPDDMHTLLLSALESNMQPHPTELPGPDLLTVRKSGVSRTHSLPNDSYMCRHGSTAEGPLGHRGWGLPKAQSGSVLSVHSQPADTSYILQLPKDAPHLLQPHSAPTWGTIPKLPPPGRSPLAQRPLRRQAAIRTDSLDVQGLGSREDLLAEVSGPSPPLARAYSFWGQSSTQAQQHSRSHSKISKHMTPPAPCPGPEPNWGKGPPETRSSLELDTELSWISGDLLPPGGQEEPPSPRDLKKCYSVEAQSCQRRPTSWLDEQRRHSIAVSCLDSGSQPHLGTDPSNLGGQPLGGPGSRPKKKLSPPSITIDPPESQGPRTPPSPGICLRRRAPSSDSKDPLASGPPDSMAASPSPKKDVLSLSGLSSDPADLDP

human α1H T-type channels, sequence (O95180 whole entry): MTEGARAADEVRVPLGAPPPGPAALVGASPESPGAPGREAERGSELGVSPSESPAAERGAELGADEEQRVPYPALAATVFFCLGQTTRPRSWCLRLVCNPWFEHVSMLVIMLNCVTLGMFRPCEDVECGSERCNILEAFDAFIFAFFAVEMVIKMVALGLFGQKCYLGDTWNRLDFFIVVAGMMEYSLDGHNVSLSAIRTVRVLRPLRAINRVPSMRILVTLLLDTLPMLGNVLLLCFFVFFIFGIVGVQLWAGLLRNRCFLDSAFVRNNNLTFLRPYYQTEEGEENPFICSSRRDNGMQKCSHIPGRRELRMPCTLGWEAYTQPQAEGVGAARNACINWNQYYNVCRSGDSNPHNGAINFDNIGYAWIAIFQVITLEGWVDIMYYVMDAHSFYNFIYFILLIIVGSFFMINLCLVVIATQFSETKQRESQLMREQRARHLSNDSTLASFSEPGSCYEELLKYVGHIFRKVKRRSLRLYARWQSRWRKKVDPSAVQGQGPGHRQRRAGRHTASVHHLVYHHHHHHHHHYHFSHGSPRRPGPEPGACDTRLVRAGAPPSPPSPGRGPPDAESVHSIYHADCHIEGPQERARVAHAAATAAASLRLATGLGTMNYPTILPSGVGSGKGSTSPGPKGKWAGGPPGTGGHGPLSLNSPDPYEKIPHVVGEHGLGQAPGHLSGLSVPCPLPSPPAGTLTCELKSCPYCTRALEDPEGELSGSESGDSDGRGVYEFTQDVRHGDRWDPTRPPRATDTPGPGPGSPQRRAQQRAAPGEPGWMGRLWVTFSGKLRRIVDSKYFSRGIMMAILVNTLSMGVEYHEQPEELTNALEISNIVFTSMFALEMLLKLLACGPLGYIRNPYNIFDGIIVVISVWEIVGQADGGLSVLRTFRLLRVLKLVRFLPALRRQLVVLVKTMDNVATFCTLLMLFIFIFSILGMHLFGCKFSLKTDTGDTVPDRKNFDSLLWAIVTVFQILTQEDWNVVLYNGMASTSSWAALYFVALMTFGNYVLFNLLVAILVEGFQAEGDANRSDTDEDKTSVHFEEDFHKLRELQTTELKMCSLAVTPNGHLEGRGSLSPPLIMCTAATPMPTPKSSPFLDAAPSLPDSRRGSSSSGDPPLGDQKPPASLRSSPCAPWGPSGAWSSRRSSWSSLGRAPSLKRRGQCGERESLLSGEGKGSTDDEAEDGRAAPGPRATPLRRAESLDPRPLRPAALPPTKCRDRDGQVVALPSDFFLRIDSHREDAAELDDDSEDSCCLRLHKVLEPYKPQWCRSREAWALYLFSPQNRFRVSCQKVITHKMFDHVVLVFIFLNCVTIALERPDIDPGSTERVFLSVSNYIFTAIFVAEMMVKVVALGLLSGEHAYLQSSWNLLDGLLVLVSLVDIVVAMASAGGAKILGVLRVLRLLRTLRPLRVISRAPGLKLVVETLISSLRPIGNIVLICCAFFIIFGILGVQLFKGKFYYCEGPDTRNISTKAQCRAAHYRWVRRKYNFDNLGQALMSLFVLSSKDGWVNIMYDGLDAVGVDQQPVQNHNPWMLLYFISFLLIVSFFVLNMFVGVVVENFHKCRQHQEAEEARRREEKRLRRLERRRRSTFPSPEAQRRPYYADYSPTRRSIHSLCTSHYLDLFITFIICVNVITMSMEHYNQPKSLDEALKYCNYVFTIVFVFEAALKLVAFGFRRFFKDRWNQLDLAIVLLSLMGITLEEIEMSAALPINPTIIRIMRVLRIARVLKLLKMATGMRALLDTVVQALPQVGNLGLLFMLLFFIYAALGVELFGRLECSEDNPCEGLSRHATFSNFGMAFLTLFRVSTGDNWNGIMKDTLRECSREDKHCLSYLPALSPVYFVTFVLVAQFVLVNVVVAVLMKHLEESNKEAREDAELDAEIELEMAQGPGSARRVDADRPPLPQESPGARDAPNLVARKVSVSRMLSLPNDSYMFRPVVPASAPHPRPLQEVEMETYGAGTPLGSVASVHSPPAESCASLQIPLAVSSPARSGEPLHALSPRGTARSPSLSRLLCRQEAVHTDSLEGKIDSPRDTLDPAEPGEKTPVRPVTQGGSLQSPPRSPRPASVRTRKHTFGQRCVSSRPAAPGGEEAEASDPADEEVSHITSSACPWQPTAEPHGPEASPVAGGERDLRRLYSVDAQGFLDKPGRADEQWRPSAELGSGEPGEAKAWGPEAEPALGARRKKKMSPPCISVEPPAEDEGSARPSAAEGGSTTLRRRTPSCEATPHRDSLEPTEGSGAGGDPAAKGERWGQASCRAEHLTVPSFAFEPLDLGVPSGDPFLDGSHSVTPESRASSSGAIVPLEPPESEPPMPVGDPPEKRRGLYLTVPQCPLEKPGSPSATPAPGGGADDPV

For the compound `Cc1nc(S(=O)(=O)N[C@H]2CC[C@@](F)(S(=O)(=O)c3cccc(C(F)(F)F)c3)CC2)cn1C` [Compound 294], the IC50 is greater than 10 µM in experiment [1] and 3760 nM in experiment [2].

Consider `O=C(N[C@H]1CC[C@@](F)(S(=O)(=O)c2cc(F)cc(C(F)(F)F)c2)CC1)c1cc(F)cc(Cl)c1` [Compound 326, 3-chloro-5-fluoro-N-((1S,4S)-4-fluoro-4-(3-fluoro-5-(trifluoromethyl)phenylsulfonyl)cyclohexyl) benzamide], for which the IC50 in experiment [1] turned out to be 1.48 µM; in experiment [2], 330 nM.

In the case of `O=C(N[C@H]1CC[C@H](CS(=O)(=O)c2cccc(C(F)(F)F)c2)CC1)c1cc(F)cc(C(F)(F)F)c1` [Compound 107, 3-fluoro-5-(trifluoromethyl)-N-((1R,4R)-4-((3-(trifluoromethyl)phenylsulfonyl)methyl)cyclohexyl)benzamide], the IC50 in experiment [1] is greater than 10 µM; in experiment [2] it was 2710 nM.

On to `CCN(CC)C(=O)CN[C@H]1CC[C@@H](S(=O)(=O)c2cccc(C(F)(F)F)c2)CC1` [Compound 51, N,N-diethyl-2-((1S,4S)-4-(3-(trifluoromethyl)phenylsulfonyl)cyclohexylamino)acetamide], for which the IC50 is greater than 10 µM in experiment [1] and 1510 nM in experiment [2].

For `CC1(NC(=O)c2cc(F)cc(Cl)c2)CCC(F)(S(=O)(=O)c2cccc(C(F)(F)F)c2)CC1` (stereo not shown) [Compound 93, 3-chloro-5-fluoro-N-(4-fluoro-1-methyl-4-(3-(trifluoromethyl)phenylsulfonyl)cyclohexyl)benzamide], the IC50 was greater than 10 µM in experiment [1] and 240 nM in experiment [2].

As to `CC1(NC(=O)c2ccc(OC(F)(F)F)cc2)CCC(S(=O)(=O)c2cccc(C(F)(F)F)c2)CC1` (stereo not shown) [Compound 315, N-(1-methyl-4-(3-(trifluoromethyl)phenylsulfonyl)cyclohexyl)-4-(trifluoromethoxy)benzamide], the IC50 in experiment [1] is greater than 10 µM; in experiment [2] it was 1230 nM.

Turning to `CC(C)(CCNC(=O)c1ccc(F)c(C(F)(F)F)c1)S(=O)(=O)c1cccc(C(F)(F)F)c1` [Compound 466, 4-fluoro-N-(3-methyl-3-(3-(trifluoromethyl)phenylsulfonyl)butyl)-3-(trifluoromethyl)benzamide], in experiment [1], the IC50 is 0.55 µM.

Regarding `CC1(CNC(=O)c2ccc(C(F)(F)F)cc2S(C)(=O)=O)CCC(F)(S(=O)(=O)c2cccc(C(F)(F)F)c2)CC1` (stereo not shown) [Compound 155, N-((4-fluoro-1-methyl-4-(3-(trifluoromethyl)phenylsulfonyl)cyclohexyl)methyl)-2-(methylsulfonyl)-4-(trifluoromethyl)benzamide], the IC50 in experiment [3] is 0.96 µM; in experiment [2], 540 nM.

Turning to `O=C(N[C@H]1CC[C@@](F)(S(=O)(=O)c2cccc(C(F)(F)F)c2)CC1)c1ccc(F)c(Cl)c1` [Compound 238, 3-chloro-4-fluoro-N-((1S,4S)-4-fluoro-4-(3-(trifluoromethyl)phenylsulfonyl)cyclohexyl)benzamide], the values for the concentration for half-maximal inhibition (IC50) in experiment [3] and in experiment [2] were 2.78 µM and 90 nM, respectively.

With `CC(C)(C)S(=O)(=O)c1ccsc1C(=O)N[C@H]1CC[C@@](F)(S(=O)(=O)c2cccc(C(F)(F)F)c2)CC1` [Compound 244, 3-(tert-butylsulfonyl)-N-((1S,4S)-4-fluoro-4-(3-(trifluoromethyl)phenylsulfonyl)cyclohexyl)thiophene-2-carboxamide], the IC50 is 3.57 µM in experiment [3] and 40 nM in experiment [2].

Turning to `O=S(=O)(NC[C@H]1C[C@H](S(=O)(=O)c2cccc(C(F)(F)F)c2)C1)c1ccccc1C(F)(F)F` [Compound 426, 2-(trifluoromethyl)-N-(((1R,3R)-3-(3-(trifluoromethyl)phenylsulfonyl)cyclobutyl)methyl)benzenesulfonamide], the concentration for half-maximal inhibition (IC50) in experiment [3] is greater than 10 µM; in experiment [2], 1140 nM.

For `CC(C)(C)NC(=O)CNC[C@H]1CC[C@@H](S(=O)(=O)c2cccc(C(F)(F)F)c2)CC1` [Compound 35, N-tert-butyl-2-(((1S,4S)-4-(3-(trifluoromethyl)phenylsulfonyl)cyclohexyl)methylamino)acetamide], the IC50 in experiment [1] was greater than 10 µM.
